Data: publication PMC12858405, “Ideal efficacy photoswitching for chromocontrol of TRPC4/5 channel functions in live tissues” (Nature Chemical Biology, 2026)

Legend:
heteromeric TRPC5:TRPC1 = target: T1, heteromeric TRPC5:TRPC1 (Homo sapiens, UniProt Q9UL62); assay: Whole-cell recordings, HEK293 co-expressing TRPC5 and TRPC1; assay type: cell-based; conditions: 10 nM
T1 construct: expressed in transfected cells; host or cells: HEK293, transiently transfected
Text: Müller, Niemeyer, et al., Schaefer & Thorn-Seshold 2025: Ideal Efficacy Photoswitching of TRPC4/5 in Tissue 3.3 Activation of heteromeric TRPC4:TRPC1 and TRPC5:TRPC1
Supplementary Figure 15: Photoswitching of ionic currents through heteromeric TRPC4:TRPC1 and TRPC5:TRPC1 channel complexes. Whole cell recordings from HEK293 cells that were transiently transfected to express the indicated TRPC isoforms were obtained in the whole cell mode with a voltage and photoswitching paradigm as illustrated in (A). (B-D) Superimposed recordings of 20 consecutive sweeps are shown for cells that ony express TRPC4 or TRPC5 (left), and for cells that co-express the respective TRPC channel along with TRPC1 (right). Note the characteristic change of the current-voltage relationship with smaller inward currents and stronger outward rectification in cells that co-express TRPC1. […]
or 10 nM (all other panels). The data shown are representative for 4-12 patched cells, each.
Currents through heteromeric complexes that are composed of TRPC4:TRPC1 or TRPC5:TRPC1 subunits can be unequivocally recognized on the basis of their unique biophysical properties with smaller unitary and global inward current amplitudes and a marked outward rectification.44 We show […]
also the heteromeric complexes TRPC5:TRPC1 and TRPC4:TRPC1 that are formed upon co-expression with TRPC1 (Supplementary Fig. 15). […]

TRPC4β-I575V-SYFP2 = target: T2, TRPC4β-I575V-SYFP2 (Homo sapiens, UniProt Q9UBN4, I575V); assay: Fura-2 [Ca2+]i recordings, HEK 293 transiently expressing TRPC4β-I575V-SYFP2; assay type: cell-based; conditions: AzHC 10-1000 nM, AM237 100 nM
T2 construct: expressed in transfected cells; host or cells: HEK 293 (ATCC CRL 1573), transiently transfected (jetPRIME)
T2 sequence (Q9UBN4 other isoform, or with tags, fused parts or gaps I575V): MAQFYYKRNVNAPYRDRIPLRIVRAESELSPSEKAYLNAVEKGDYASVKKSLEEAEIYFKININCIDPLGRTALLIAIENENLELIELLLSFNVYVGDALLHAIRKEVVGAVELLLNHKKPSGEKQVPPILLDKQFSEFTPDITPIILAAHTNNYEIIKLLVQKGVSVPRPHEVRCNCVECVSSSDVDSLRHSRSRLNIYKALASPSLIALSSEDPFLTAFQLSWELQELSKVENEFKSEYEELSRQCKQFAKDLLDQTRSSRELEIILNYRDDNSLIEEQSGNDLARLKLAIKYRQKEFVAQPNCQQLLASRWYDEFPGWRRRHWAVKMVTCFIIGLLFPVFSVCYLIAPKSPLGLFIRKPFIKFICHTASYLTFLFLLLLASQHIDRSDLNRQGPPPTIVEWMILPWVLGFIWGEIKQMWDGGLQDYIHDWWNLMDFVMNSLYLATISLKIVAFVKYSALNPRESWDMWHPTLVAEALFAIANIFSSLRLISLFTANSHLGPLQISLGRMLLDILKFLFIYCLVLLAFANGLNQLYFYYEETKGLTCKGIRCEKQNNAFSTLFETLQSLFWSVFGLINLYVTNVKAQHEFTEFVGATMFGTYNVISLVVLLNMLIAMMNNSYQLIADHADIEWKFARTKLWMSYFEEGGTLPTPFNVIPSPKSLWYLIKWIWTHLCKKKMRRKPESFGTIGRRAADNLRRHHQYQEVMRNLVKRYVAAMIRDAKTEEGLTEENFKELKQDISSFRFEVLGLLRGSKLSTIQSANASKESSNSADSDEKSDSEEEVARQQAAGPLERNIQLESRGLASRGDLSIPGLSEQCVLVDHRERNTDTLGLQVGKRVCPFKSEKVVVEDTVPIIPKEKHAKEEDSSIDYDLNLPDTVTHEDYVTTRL
Text: Müller, Niemeyer, et al., Schaefer & Thorn-Seshold 2025: Ideal Efficacy Photoswitching of TRPC4/5 in Tissue […]
1.4.3 Note on TRPC4 / TRPC5 Sequence Alignment
The key contact residues of interest in the ligand binding site are highly conserved between TRPC4 and TRPC5. The relevant sequences in the site are: […]
1.4.4 Differences and selectivity between TRPC5 and TRPC4?
AM237 activates TRPC5 but inhibits EA mediated activation of TRPC4; Pico145 inhibits both TRPC4 and TRPC5. Thus, somewhat naively, it could be argued that it is the para substituent here which affects both the efficacy mode and the selectivity for TRPC4 and/or TRPC5.
Intriguingly, Z-AzPico activates TRPC4 and TRPC5 with low nanomolar potency whereas Z-AzHC only activates TRPC5 but not TRPC4. Therefore, the meta substituent is now responsible for the selectivity in this case. The cryo-EM structures of Pico145 and HC-070 in complex with TRPC5 indicated the same binding site but the southern phenyl ring bearing the OCF3/Cl group is flipped and pointing in opposite directions.
Z isomers, i.e. Z-buried vs. E-projected. Additionally, both E-AzPico and E-AzHC inhibit EA […]
Intracellular calcium ([Ca2+]i) was measured using the ratiometric Ca2+ dye Fura-2. […]

T1 sequence (Q9UL62 whole entry): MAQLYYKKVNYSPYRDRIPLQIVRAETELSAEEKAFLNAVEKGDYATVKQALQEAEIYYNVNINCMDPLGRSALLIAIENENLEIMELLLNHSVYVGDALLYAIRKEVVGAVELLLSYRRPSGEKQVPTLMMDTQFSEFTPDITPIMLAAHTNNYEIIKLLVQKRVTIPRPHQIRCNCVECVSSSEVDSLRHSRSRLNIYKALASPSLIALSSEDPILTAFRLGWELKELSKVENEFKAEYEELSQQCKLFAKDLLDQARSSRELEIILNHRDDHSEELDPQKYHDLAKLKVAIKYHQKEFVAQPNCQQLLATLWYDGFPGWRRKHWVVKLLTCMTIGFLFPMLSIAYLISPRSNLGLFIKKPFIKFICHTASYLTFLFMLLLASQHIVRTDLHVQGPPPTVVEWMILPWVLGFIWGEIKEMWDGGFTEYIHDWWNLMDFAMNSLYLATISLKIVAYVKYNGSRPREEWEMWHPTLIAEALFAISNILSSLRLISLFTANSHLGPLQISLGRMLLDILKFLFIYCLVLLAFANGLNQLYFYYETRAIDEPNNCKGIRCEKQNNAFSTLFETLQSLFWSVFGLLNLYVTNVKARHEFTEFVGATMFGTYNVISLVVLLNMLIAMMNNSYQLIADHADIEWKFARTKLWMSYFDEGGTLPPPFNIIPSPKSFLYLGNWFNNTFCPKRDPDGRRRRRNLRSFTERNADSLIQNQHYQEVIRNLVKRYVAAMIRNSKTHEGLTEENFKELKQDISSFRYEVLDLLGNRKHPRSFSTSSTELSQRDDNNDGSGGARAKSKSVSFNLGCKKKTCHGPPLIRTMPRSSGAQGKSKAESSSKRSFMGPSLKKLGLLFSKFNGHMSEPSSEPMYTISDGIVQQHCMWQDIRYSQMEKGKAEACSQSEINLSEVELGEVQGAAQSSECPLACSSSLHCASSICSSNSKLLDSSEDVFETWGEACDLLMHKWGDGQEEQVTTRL
T1 sequence (P48995 whole entry partner): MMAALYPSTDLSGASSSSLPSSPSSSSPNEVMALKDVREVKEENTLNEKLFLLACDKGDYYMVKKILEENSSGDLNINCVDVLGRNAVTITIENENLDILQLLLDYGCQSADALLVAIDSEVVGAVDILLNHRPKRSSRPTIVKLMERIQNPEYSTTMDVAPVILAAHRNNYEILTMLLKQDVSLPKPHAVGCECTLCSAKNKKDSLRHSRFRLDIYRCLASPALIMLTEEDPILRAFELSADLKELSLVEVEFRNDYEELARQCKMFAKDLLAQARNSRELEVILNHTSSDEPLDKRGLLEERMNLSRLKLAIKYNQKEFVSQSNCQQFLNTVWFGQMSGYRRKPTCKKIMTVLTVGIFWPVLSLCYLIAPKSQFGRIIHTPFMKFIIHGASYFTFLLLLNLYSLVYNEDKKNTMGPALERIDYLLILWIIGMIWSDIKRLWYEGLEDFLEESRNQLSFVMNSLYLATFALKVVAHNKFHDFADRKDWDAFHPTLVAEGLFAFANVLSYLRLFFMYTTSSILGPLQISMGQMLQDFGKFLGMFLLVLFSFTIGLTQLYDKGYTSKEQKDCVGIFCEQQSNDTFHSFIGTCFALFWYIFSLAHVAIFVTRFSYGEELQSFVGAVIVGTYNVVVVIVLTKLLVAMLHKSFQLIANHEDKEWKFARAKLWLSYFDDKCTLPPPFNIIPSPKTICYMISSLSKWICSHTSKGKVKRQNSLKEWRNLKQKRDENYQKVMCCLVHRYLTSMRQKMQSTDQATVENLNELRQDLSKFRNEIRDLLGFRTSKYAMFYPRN

Row | Compound | Chromocontrol over heteromeric TRPC5:TRPC1 currents versus homomeric channels (heteromeric TRPC5:TRPC1) | Effect on [Ca2+]i, TRPC4I575V (TRPC4β-I575V-SYFP2)
1 | Cn1c(=O)n(CCCO)c(=O)c2c1nc(Oc1ccc(N=Nc3ccccc3)c(OC(F)(F)F)c1)n2Cc1ccc(Cl)cc1 [AzPico] | comparable chromocontrol | –
2 | Cn1c(=O)n(CCCO)c(=O)c2c1nc(Oc1ccc(N=Nc3ccccc3)c(Cl)c1)n2Cc1ccc(Cl)cc1 [AzHC] | comparable chromocontrol | –
3 | Cn1c(=O)n(CCCO)c(=O)c2c1nc(Oc1ccc(Cl)c(OC(F)(F)F)c1)n2Cc1ccc(Cl)cc1 [AM237, reference compound] | – | do not activate
4 | Cn1c(=O)n(CCCO)c(=O)c2c1nc(Oc1ccc(/N=N\c3ccccc3)c(Cl)c1)n2Cc1ccc(Cl)cc1 [Z*-AzHC] | – | do not activate
